Measured values published in patent US6365603B1, “Aromatic compounds and pharmaceutical compositions containing them” (Zeneca Ltd., priority 1995, dated 2002).

Test system: not given
Conditions: not given

First: CCN(Cc1cc(Br)ccc1OCC1CC1)c1ccc(C(=O)O)nn1 [Example 3, 6-[N-(5-Bromo-2-(cyclopropylmethoxy)benzyl)-N-ethylamino]pyridazine-3-carboxylic acid]
Second: CCN(Cc1cc(Cl)ccc1OCC1CC1)c1ccc(C(=O)O)nn1 [Example 22, 6-[N-(5-Chloro-2-(cyclopropylmethoxy)benzyl)-N-ethylamino]pyridazine-3-carboxylic acid]
The melting point of the first is lower: 73 to 80 °C for the first, 119 to 120 °C for the second.

First: CCCOc1ccc(Br)cc1CN(CC)c1ccc(C(=O)O)nn1 [Example 18, 6-(N-[5-Bromo-2-propoxybenzyl]-N-ethylamino)pyridazine-3-carboxylic acid]
Second: CCN(Cc1cc(Cl)ccc1OCC1CC1)c1ccc(C(N)=O)nn1 [Example 21, 6-[N-(5-Chloro-2-(cyclopropylmethoxy)benzyl)-N-ethylamino]pyridazine-3-carboxamide]
The melting point of the first is lower: 135 to 137 °C for the first, 177 to 178 °C for the second.

`CCN(Cc1cc(Cl)ccc1OCC1CC1)c1ccc(-c2nnn[nH]2)nn1` [Example 23, 5-[6-(N-[5-Chloro-2-cyclopropylmethoxybenzyl]-N-ethylamino)pyridazin-3-yl]tetrazole] showed a melting point of 190 to 192 °C.

Test system: EP1 receptors
Conditions: guinea pig ileum, dog fundus, cat trachea, chick ileum; cited from earlier work

For `CC(=O)NNC(=O)N1Cc2ccccc2Oc2ccc(Cl)cc21` [SC-19220], the “block of the effect of PGE2 on tissues” value is listed as “blocks the effect of PGE2 on some tissues such as guinea pig ileum or dog fundus but not on other tissues such as the cat trachea or chick ileum”.
